Results: patent US20040023884A1, “Biologically active peptides from functional domains of bactericidal/permeability-increasing protein and uses thereof” (priority 1993, published 2004)

Tests used:
[1] = tested on: rough mutant E. coli J5 bacteria; test: Radial diffusion bactericidal assay, E. coli J5; type: cell-based; conditions: radial diffusion; PROBIT analysis; E. coli J5 (rough)
How it was run: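 Log-phase bacteria, washed in 10 mM sodium phosphate pH 7.4, were seeded at 4×10^6 CFU/mL in underlayer agarose. BPI fragments (5 or 10 μL) went into 3 mm wells for 3 h at 37° C., then overlayer agarose was added. After overnight 37° C. incubation, clearing zones were measured by micrometer.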

[2] = 3H-heparin binding assay (affinity and capacity); conditions: for Heparin Capacity: heparin bound at saturation; for Kd: read-out: Heparin Affinity
How it was run: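 Peptide fragments were bound to PVDF-membrane wells and incubated with 3H-heparin in blocking buffer for 1 h at 4 °C. After washing, bound radioactivity was quantified by liquid scintillation counting, with BSA background subtracted; rBPI23 served as positive control.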

[3] = tested on: E. coli 0113 LPS; test: Limulus Amoebocyte Lysate (LAL) inhibition assay; type: biochemical; conditions: alanine variant relative to BPI.2
How it was run: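 BPI proteolytic fragments incubated with E. coli 0113 LPS (4 ng/mL final) for 3 h at 37 °C, then diluted in D-PBS to 200 pg/mL LPS for chromogenic LAL. Lysate 25 min, substrate 20–30 min at room temperature, acetic acid stop; OD405 expressed as percent LPS inhibition.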

[4] = tested on: E. coli 0111:B4 (smooth) bacteria; test: Radial diffusion bactericidal assay, E. coli 0111:B4; type: cell-based; conditions: radial diffusion; PROBIT analysis; E. coli O111:B4 (smooth)
[5] = tested on: E. coli O86a:K61; test: Radial diffusion bactericidal assay, E. coli O86a:K61; type: cell-based; conditions: FIG. 11i
[6] = tested on: Staphylococcus aureus; test: Radial diffusion bactericidal assay, Staphylococcus aureus; type: cell-based; conditions: radial diffusion; PROBIT analysis; S. aureus
[7] = tested on: endotoxin (e.g. E. coli 01:B4); test: Mouse experimental endotoxemia model; design: species or system mice; conditions: in vivo
Description: BPI functional domain peptides are tested for their efficacy in a mouse experimental endotoxemia model. Groups of at least 15 mice are administered an intravenous injection of endotoxin (e.g. E. coli 01:B4, Sigma Chemical Co., St. Louis, Mo.) at a LD90 dosage (e.g., 40 mg/kg). This is followed by a second intravenous injection of the test peptide in varying concentrations from about 0.1 mg/kg to about 100 mg/kg, preferably in the range of about 1 to 50 mg/kg. Injections of buffer without added peptide are used in negative control mice. The animals are observed for 7 days and mortality recorded. The efficacy of the peptides of this invention is measured by a decrease in endotoxemia-associated mortality in peptide-injected mice as compared with control mice.

[8] = tested on: ATIII/heparin complexes; test: Thrombin inactivation by ATIII/heparin complexes (Chromostrate anti-thrombin assay); type: biochemical; conditions: 1.0 to 100 μg/mL
Description: BPI functional domain peptides BPI.2, BPI.3, BPI.4, BPI.5, BPI.6, and BPI.8, along with rBPI23 as a positive control, were assayed for their effect on thrombin inactivation by ATIII/heparin complexes according to the method of Example 3 in copending and co-assigned U.S. patent application Ser. No. 08/093,202, filed Jul. 15, 1993, incorporated by reference. Specifically, a Chromostrate™ anti-thrombin assay kit (Organon Teknika Corp., Durham, N.C.) was used to examine the inhibition of purified thrombin by preformed ATIII/heparin complexes in plasma.
Briefly, the assay was performed in 96 well microtiter plates in triplicate with a final volume per well of 200 μL. Varying concentrations of the BPI functional domain peptides ranging from 1.0 μg/mL to 100 μg/mL were assayed to determine their effect on thrombin inhibition in the presence of pre-formed ATIII/heparin complexes. The order of addition of assay components was as follows: 1) a dilution series of rBPI23 or BPI functional domain peptides or thaumatin as a control protein, with final concentrations of 100, 50, 25, 10 and 1 μg/well, diluted in PBS in a final volume of 50 μL; 2) 50 μL plasma diluted 1:100 in a buffer supplied by the manufacturer, 3) 50 μl thrombin at 1 nKat/mL in a buffer supplied by the manufacturer, and 4) 50 μL chromogenic substrate at a concentration of 1 μmol/mL in water. The reaction was allowed to proceed for 10 minutes at 37° C. and stopped with the addition of 50 μL 0.1M citric acid. The colorimetric reaction was quantitated on a microplate reader as described in Example 3.

[9] = In vivo APTT in heparinized rats; design: species or system Sprague-Dawley rats; conditions: 100 U/kg heparin i.v., test protein 5 minutes later, blood 2 minutes after
Description: The in vivo effect of exemplary BPI combination peptides on APTT in heparinized rats was determined and compared with the in vivo effect of rBPI23. APTT is lengthened by the presence of endogenous or exogenous inhibitors of thrombin formation, such as therapeutically administered heparin. Agents which neutralize the anti-coagulant effects of heparin will reduce the APTT as measured by this test. Sprague-Dawley rats housed under NIH guidelines were administered with 100 U/kg heparin by bolus intravenous injections via the animals' tail vein followed 5 minutes later by administration of varying amounts of test or control protein as compared with rBPI23. The APTT was then determined from blood samples collected from the abdominal aorta 2 minutes after the administration of the test or control protein. The APTT of untreated animals, as well as animals treated only with a BPI peptide, was also determined.

| Substance | pmol added to well to achieve a 30 mm^2 bactericidal zone, E. coli J5 [1] | Heparin Capacity [2] | Kd [2] | LAL (relative difference) [3] | pmol added to well to achieve a 30 mm^2 bactericidal zone, E. coli O111:B4 [4] | bactericidal activity (in words) [5] | pmol added to well to achieve a 30 mm^2 bactericidal zone, S. aureus [6] | activity in the murine endotoxemia model (in words) [7] | cpm ^3H-Heparin bound ([2]; 100 picomoles of each fragment per well, saturating 3H-heparin 20 μg/mL, mean of duplicate wells ± range) | heparin neutralization effect (in words) [8] | APTT in heparinized rats (in words) [9] |
| --- | --- | --- | --- | --- | --- | --- | --- | --- | --- | --- | --- |
| IKISGKWKAAKRFLK [BPI.23] | 1,330.40 pmol | 285.0 ng | 693 nM | = (no difference in the LAL assay) | 14,445.00 pmol | showed bactericidal activity |  |  |  |  |  |
| KWKAQFRFLKKSKVGWLILLFHKK [BPI.102] | 13,814.12 pmol | 535.2 ng | 4610 nM |  | 697,655.78 pmol |  | b (no detectable activity up to 5 μg/well) | active in this murine model |  |  |  |
| thaumatin [reference compound] |  |  |  |  |  |  |  |  | 7,432 ± 83 cpm | no neutralizing effect | no effect on APTT times in heparinized animals |
